This note sets out measurements from ChEMBL document CHEMBL3045861, “Synthesis and insecticidal activity of N-tert-butyl-N,N'-diacylhydrazines containing 1,2,3-thiadiazoles” (2011).

Common to all, as to format: functional
The subject of test [1] is Culex pipiens pallens. The test can be described thus: Insecticidal activity against Culex pipiens pallens (mosquito) fourth-instar larvae assessed as insect mortality at 2 ug/mL measured 96 hr post compound exposure.
Test [2] concerns Plutella xylostella. The test can be described thus: Insecticidal activity against Plutella xylostella (diamondback moth) second-instar larvae grown on compound treated fresh cabbage leaves assessed as insect mortality at 200 ug/mL measured 96 hr post compound exposure by leaf film feeding method.
In test [3] the test system is Culex pipiens pallens. As to the kind of experiment: Insecticidal activity against Culex pipiens pallens (mosquito) fourth-instar larvae assessed as insect mortality at 0.5 ug/mL measured 96 hr post compound exposure.
For test [4], the system named is Culex pipiens pallens. As to the kind of experiment: Insecticidal activity against Culex pipiens pallens (mosquito) fourth-instar larvae assessed as insect mortality at 1 ug/mL measured 96 hr post compound exposure.
Test [5] relates to Plutella xylostella. The test can be described thus: Insecticidal activity against Plutella xylostella (diamondback moth) second-instar larvae grown on compound treated fresh cabbage leaves assessed as insect mortality at 400 ug/mL measured 96 hr post compound exposure by leaf film feeding method.
The test system of test [6] is Plutella xylostella. As to the kind of experiment: Insecticidal activity against Plutella xylostella (diamondback moth) second-instar larvae grown on compound treated fresh cabbage leaves assessed as insect mortality measured 96 hr post compound exposure by leaf film feeding method.

Each structure is given as a SMILES string. In brackets after ≈: the same amount, converted by molar mass.

As to `Cc1nnsc1C(=O)N(NC(=O)c1ccc([N+](=O)[O-])cc1)C(C)(C)C`, the mortality at 2 µg/mL in test [1] was 30%. The mortality at 200 µg/mL in test [2] was 33%.

In the case of `Cc1nnsc1C(=O)N(NC(=O)c1cccc([N+](=O)[O-])c1)C(C)(C)C`, the mortality at 2 µg/mL in test [1] turned out to be 10%. In addition, in test [2], the mortality at 200 µg/mL was determined as 34%.

With `Cc1nnsc1C(=O)N(NC(=O)c1ccccc1[N+](=O)[O-])C(C)(C)C`, the mortality at 2 µg/mL in test [1] came out at 20%. For the same compound, the mortality at 200 µg/mL in test [2] turned out to be 16%.

As for `Cc1nnsc1C(=O)N(NC(=O)c1cccc(C(F)(F)F)c1)C(C)(C)C`, in test [3], the mortality at 0.5 µg/mL was 0%. Further, in test [4], the mortality at 1 µg/mL is 100%. The mortality at 2 µg/mL in test [1] was 100%. The mortality at 200 µg/mL in test [2] was 32%.

Turning to `Cc1nnsc1C(=O)N(NC(=O)c1ccc(C(F)(F)F)cc1)C(C)(C)C`, in test [1], the mortality at 2 µg/mL came to 40%. In addition, the mortality at 200 µg/mL in test [2] came out at 13%.

Turning to `Cc1nnsc1C(=O)N(NC(=O)c1ccc(Cl)cc1)C(C)(C)C`, the mortality at 2 µg/mL in test [1] stood at 20%. Besides, the mortality at 400 µg/mL in test [5] was 43%.

Take `Cc1nnsc1C(=O)N(NC(=O)c1cccc(Cl)c1)C(C)(C)C`: the mortality at 2 µg/mL in test [1] is 0%. Also, in test [2], the mortality at 200 µg/mL was 25%.

For the compound `Cc1nnsc1C(=O)N(NC(=O)c1ccccc1Cl)C(C)(C)C`, the mortality at 2 µg/mL in test [1] was determined as 20%. In addition, in test [2], the mortality at 200 µg/mL worked out at 24%.

As to `COc1cccc(C(=O)NN(C(=O)c2snnc2C)C(C)(C)C)c1`, the mortality at 2 µg/mL in test [1] came out at 10%. The mortality at 400 µg/mL in test [5] worked out at 10%.

For the compound `COc1ccc(C(=O)NN(C(=O)c2snnc2C)C(C)(C)C)cc1`, the mortality at 2 µg/mL in test [1] turned out to be 10%. Moreover, in test [5], the mortality at 400 µg/mL turned out to be 28%.

`COc1ccccc1C(=O)NN(C(=O)c1snnc1C)C(C)(C)C`: the mortality at 2 µg/mL in test [1] worked out at 10%. Besides, the mortality at 200 µg/mL in test [2] was 29%.

Take `Cc1ccc(C(=O)NN(C(=O)c2snnc2C)C(C)(C)C)cc1`: the mortality at 2 µg/mL in test [1] was 0%. Further, in test [2], the mortality at 200 µg/mL was determined as 37%.

As for `Cc1cccc(C(=O)NN(C(=O)c2snnc2C)C(C)(C)C)c1`, in test [1], the mortality at 2 µg/mL came to 20%. In test [2], the mortality at 200 µg/mL is 12%.

With `Cc1ccccc1C(=O)NN(C(=O)c1snnc1C)C(C)(C)C`, the mortality at 0.5 µg/mL in test [3] came to 30%. Also, the mortality at 1 µg/mL in test [4] was found to be 100%. Moreover, in test [1], the mortality at 2 µg/mL stood at 100%. Further, the mortality at 200 µg/mL in test [2] is 68%.

With `Cc1nnsc1C(=O)NN(C(=O)c1ccc([N+](=O)[O-])cc1)C(C)(C)C`, the mortality at 2 µg/mL in test [1] was 10%. In test [2], the mortality at 200 µg/mL came out at 5%.

On to `Cc1nnsc1C(=O)NN(C(=O)c1cccc([N+](=O)[O-])c1)C(C)(C)C`, for which the mortality at 2 µg/mL in test [1] is 30%. Also, in test [5], the mortality at 400 µg/mL was 23%.

`Cc1nnsc1C(=O)NN(C(=O)c1ccccc1[N+](=O)[O-])C(C)(C)C`: the mortality at 2 µg/mL in test [1] is 10%. Also, the mortality at 400 µg/mL in test [5] came to 45%.

Consider `Cc1nnsc1C(=O)NN(C(=O)c1ccc(C(F)(F)F)cc1)C(C)(C)C`, for which, in test [1], the mortality at 2 µg/mL came to 30%. Further, the mortality at 200 µg/mL in test [2] came to 5%.

For the compound `Cc1nnsc1C(=O)NN(C(=O)c1cccc(C(F)(F)F)c1)C(C)(C)C`, in test [1], the mortality at 2 µg/mL was found to be 40%. In addition, in test [2], the mortality at 200 µg/mL worked out at 46%.

`Cc1nnsc1C(=O)NN(C(=O)c1ccccc1C(F)(F)F)C(C)(C)C`: the mortality at 2 µg/mL in test [1] came out at 10%. Further, the mortality at 200 µg/mL in test [2] worked out at 15%.

As for `Cc1nnsc1C(=O)NN(C(=O)c1ccc(Cl)cc1)C(C)(C)C`, the mortality at 0.5 µg/mL in test [3] is 10%. Further, in test [4], the mortality at 1 µg/mL turned out to be 100%. Moreover, the mortality at 2 µg/mL in test [1] came out at 100%. Moreover, the mortality at 200 µg/mL in test [2] came out at 25%.

In the case of `Cc1nnsc1C(=O)NN(C(=O)c1cccc(Cl)c1)C(C)(C)C`, the mortality at 2 µg/mL in test [1] turned out to be 30%. For the same compound, the mortality at 200 µg/mL in test [2] turned out to be 0%.

Take `Cc1nnsc1C(=O)NN(C(=O)c1ccccc1Cl)C(C)(C)C`: the LC50 in test [6] worked out at 28 µg/mL (≈ 79.4 µM). Further, in test [1], the mortality at 2 µg/mL was found to be 10%. The mortality at 200 µg/mL in test [2] worked out at 79%.

Regarding `COc1cccc(C(=O)N(NC(=O)c2snnc2C)C(C)(C)C)c1`, the mortality at 2 µg/mL in test [1] came to 20%. Further, the mortality at 200 µg/mL in test [2] came out at 37%.

For `COc1ccc(C(=O)N(NC(=O)c2snnc2C)C(C)(C)C)cc1`, the mortality at 2 µg/mL in test [1] came to 10%. The mortality at 200 µg/mL in test [2] was determined as 25%.

As for `COc1ccccc1C(=O)N(NC(=O)c1snnc1C)C(C)(C)C`, the mortality at 2 µg/mL in test [1] was 10%. The mortality at 400 µg/mL in test [5] was found to be 30%.

As to `Cc1cccc(C(=O)N(NC(=O)c2snnc2C)C(C)(C)C)c1`, the mortality at 2 µg/mL in test [1] was determined as 20%. The mortality at 200 µg/mL in test [2] came out at 0%.

With `Cc1ccc(C(=O)N(NC(=O)c2snnc2C)C(C)(C)C)cc1`, in test [1], the mortality at 2 µg/mL worked out at 10%. Besides, the mortality at 200 µg/mL in test [2] was found to be 15%.

Take `Cc1ccccc1C(=O)N(NC(=O)c1snnc1C)C(C)(C)C`: the mortality at 2 µg/mL in test [1] turned out to be 20%. Besides, the mortality at 200 µg/mL in test [2] worked out at 8%.

Regarding `CCc1ccc(C(=O)NN(C(=O)c2cc(C)cc(C)c2)C(C)(C)C)cc1` [TEBUFENOZIDE], in test [3], the mortality at 0.5 µg/mL was determined as 60%. Besides, in test [4], the mortality at 1 µg/mL worked out at 100%. For the same compound, the LC50 in test [6] amounted to 26 µg/mL (≈ 73.8 µM). In addition, the mortality at 2 µg/mL in test [1] stood at 100%. Further, the mortality at 200 µg/mL in test [2] is 40%.

By mortality is commonly meant the share of the test organisms that died. One may read the LC50 as the concentration that kills 50% of the test population.
